Experimental data from US8945641B2, “Use of gum arabic for improving the growth and survival of bifidobacteria” (Compagnie Gervais Danone, priority 2006, dated 2015).

Test system: Bifidobacterium animalis ssp lactis I-2494
Test: Growth and survival of bifidobacteria in a drinking yogurt with yogurt ferments, acacia gum and/or cysteine, storage at 10° C.
Type: cell-based
Details: acacia gum 0.8%
From the text: A drinking yogurt (2.8% of proteins) is manufactured by reconstitution of milk powder, and supplemented with 0.8% (by weight) of acacia gum, as described in Example 1 above. This type of product is chosen for the trials since it is the one that poses the biggest problems in terms of maintaining the population of bifidobacteria during storage. The reconstituted milk, supplemented with acacia gum, is heat treated as described in Example 1 above, and homogenized (150-200 bar).
After cooling to 38-40° C., Streptococcus thermophilus and Lactobacillus delbrueckii ssp. Bulgaricus are added in an amount of 5×10^6 CFU/ml of Streptococcus thermophilus, 5×10^6 CFU/ml of Lactobacillus bulgaricus. Bifidobacterium animalis ssp lactis I-2494 is added in the form of a ferment for direct inoculation, such as those described in application FR 0606421 supplemented with cysteine or not. The supplemented ferment used corresponds to the addition of 1.92×10^7 CFU/ml of Bifidobacterium animalis and 6.9 mg/l of cysteine.
After inoculation, the fermentation is carried out at 38° C., and monitored using the CINAC® system (YSEBAERT) until the curd settling pH is obtained (4.3<pH<4.4).
The curd settling is obtained by drawing off and cooling between 10-20° C., and then stirring.
The product is then packaged in pots and then placed in a cold tunnel (4° C.).
The populations are then counted at 2 h of storage at 15° C., and then 2, 8 14, 28 and 37 days of storage at 10° C.
The same experiment was repeated with a product containing 2.7% of proteins, containing 0.8% of acacia gum, and inoculated with a ferment supplemented with cysteine, corresponding to the addition of 1.90×10^7 CFU/ml of bifidobacteria animalis and 7 mg/l of cysteine.

With `N[C@@H](CS)C(=O)O` [Control Cysteine, cysteine] the “Number of Bifidus at 2 h of storage” value (2 h of storage at 15° C., drinking yogurt 2.8% proteins, cysteine 6.9 mg/l where present) was 2.1E+8 CFU/g, the “Number of Bifidus at D +2” value (D+2, repeat, product 2.7% proteins, cysteine 7 mg/l where present) was 1.05E+08 CFU/g and the “Number of Bifidus at D +2” value (D+2 at 10° C., 2.8% proteins, cysteine 6.9 mg/l where present) was 1.2E+8 CFU/g. The “Number of Bifidus at D +8” value (D+8, repeat, 2.7% proteins, cysteine 7 mg/l where present) was 9.00E+07 CFU/g, the “Number of Bifidus at D +8” value (D+8 at 10° C., 2.8% proteins, cysteine 6.9 mg/l where present) was 1.8E+8 CFU/g and the “Number of Bifidus at D +14” value (D+14, repeat, 2.7% proteins, cysteine 7 mg/l where present) was 7.00E+07 CFU/g. The “Number of Bifidus at D +14” value (D+14 at 10° C., 2.8% proteins, cysteine 6.9 mg/l where present) was 1.4E+8 CFU/g, the “Number of Bifidus at D +21” value (D+21, repeat, 2.7% proteins, cysteine 7 mg/l where present) was 4.00E+07 CFU/g and the “Number of Bifidus at D +28” value (D+28, repeat, 2.7% proteins, cysteine 7 mg/l where present) was 2.00E+07 CFU/g. For the same molecule, the “Number of Bifidus at D +28” value (D+28 at 10° C., 2.8% proteins, cysteine 6.9 mg/l where present) was 8.8E+7 CFU/g, the “Number of Bifidus at D +35” value (D+35, repeat, 2.7% proteins, cysteine 7 mg/l where present) was 6.00E+06 CFU/g and the “Number of Bifidus at D +37” value (D+37 at 10° C., 2.8% proteins, cysteine 6.9 mg/l where present) was 7.8E+7 CFU/g. For the same molecule, the “Number of Bifidus at D +52” value (D+52, repeat, 2.7% proteins, cysteine 7 mg/l where present) was 3.00E+06 CFU/g.
